This note sets out measurements from ChEMBL document CHEMBL3507680, “University of Dundee, Gates Library screen for HepG2 cell viability”.

A short description of this data set: Human HepG2 cell viability assay in 384 well format. It counts as toxicity, cell-based. The following applies: HepG2 cells, read-out: Inhibition. On the set-up: dose 125 nL, time 70.5 hour; cytotoxicity at 70.5 h: concentration not given beside the values.

Turning to `Cn1ccc(C(=O)N2CCCC(Cc3cnc4ccccc4c3)C2)n1` (stereo not given), the cytotoxicity at 70.5 h was -1.48%.

On to `Cc1noc(C2CCCN2C(=O)C2CCC2)n1` (stereo not given), for which the cytotoxicity at 70.5 h is -11.5%.

For `Cc1c[nH]nc1C1CCCCN1C(=O)CNS(C)(=O)=O` (stereo not given), the cytotoxicity at 70.5 h came out at 9.79%.

For the compound `CC(=O)N1CCC(c2n[nH]c3nccnc23)CC1`, the cytotoxicity at 70.5 h was -7.48%.

In the case of `CNc1cncc(C2CCCN2Cc2ccnc(C)n2)n1` (stereo not given), the cytotoxicity at 70.5 h is -0.507%.

Take `Cc1ccsc1C(=O)N1CCCC(c2[nH]ncc2S(C)(=O)=O)C1` (stereo not given): the cytotoxicity at 70.5 h is -6.4%.

As for `C[C@]1(O)CCN(Cc2c[nH]cn2)C[C@@H]1Oc1cccc(F)c1`, the cytotoxicity at 70.5 h is -7.83%.

Regarding `Cc1cncc(C2CCCN(C(=O)c3cnco3)C2)n1` (stereo not given), the cytotoxicity at 70.5 h was -3.92%.

Turning to `CC(C)c1nnc(CN2CCc3ccc(S(N)(=O)=O)cc32)o1`, the cytotoxicity at 70.5 h was -0.0777%.

For `Cc1nc(C(C)C)sc1C(C)N(C)C(=O)c1ccc(=O)n(C)c1` (stereo not given), the cytotoxicity at 70.5 h turned out to be 1.52%.

For `Cc1c(NCCO)cccc1OC1CCCC1`, the cytotoxicity at 70.5 h was -2.5%.

For the compound `N#CC1COCCN1C(=O)c1ccc2[nH]cnc2c1` (stereo not given), the cytotoxicity at 70.5 h is -1.24%.

Regarding `COc1cc(NC2CCCN(c3ncccn3)C2)cc(OC)c1` (stereo not given), the cytotoxicity at 70.5 h came to 3.49%.

For the compound `COc1c(CNCC(=O)N2CCN(C)CC2)c(C(C)C)nn1C`, the cytotoxicity at 70.5 h was -5.29%.

In the case of `O=C(CCn1cncn1)NCCOc1cccc(Cl)c1`, the cytotoxicity at 70.5 h was -2.18%.

With `CC(C(=O)NCCc1ccc2c(c1)OCCO2)n1cncn1` (stereo not given), the cytotoxicity at 70.5 h was -14.6%.

With `Cc1ccc(C(=O)NC2CCCN(S(C)(=O)=O)C2)c(=O)[nH]1` (stereo not given), the cytotoxicity at 70.5 h is -2.62%.

On to `Cc1ccc(C(=O)NC2CCCN(CC(N)=O)C2)c(=O)[nH]1` (stereo not given), for which the cytotoxicity at 70.5 h is -7.85%.

With `Cc1nn(C)c(C)c1CC(=O)NCC1(C(N)=O)CCOCC1`, the cytotoxicity at 70.5 h was 22.8%.

Turning to `Cc1nc(C)n(CC2CCCN2c2ncnc3sccc23)n1` (stereo not given), the cytotoxicity at 70.5 h was -7.8%.

As for `CCc1ccsc1C(=O)NC(C#N)CC` (stereo not given), the cytotoxicity at 70.5 h was -5.37%.

As to `Cc1sc2ncnc(N3CCCC3Cn3cccn3)c2c1C` (stereo not given), the cytotoxicity at 70.5 h was -11.4%.

For `CCNC(=O)CN(CC)C(=O)c1csc(Cc2ccccc2F)n1`, the cytotoxicity at 70.5 h is -13.1%.

As for `Cc1ncsc1COC(=O)c1cccc2c1OCCO2`, the cytotoxicity at 70.5 h is -5.64%.

Turning to `O=C(CCn1cccn1)NCCOc1ncc(Cl)cc1Cl`, the cytotoxicity at 70.5 h was -10.6%.

Take `Cc1cc(C)c(C#N)c(NCCn2cnnc2C(C)C)n1`: the cytotoxicity at 70.5 h was determined as 0.173%.

Turning to `CS(=O)(=O)N1CCC(CNc2cc(Cl)ccc2C#N)CC1`, the cytotoxicity at 70.5 h was -6.86%.

For the compound `N#CC1COCCN1C(=O)c1cccc2cc[nH]c12` (stereo not given), the cytotoxicity at 70.5 h was -13.5%.

For the compound `CCN(C)Cc1cccc(CNC(=O)NCCc2ccccn2)c1`, the cytotoxicity at 70.5 h was -3.19%.

In the case of `Cc1oc(-c2ccco2)nc1CN1CCc2cncnc2C1`, the cytotoxicity at 70.5 h was -1.22%.

For the compound `CS(=O)(=O)NCc1cccc(COC2CCCCC2)c1`, the cytotoxicity at 70.5 h was -3.13%.

In the case of `COCc1ccccc1C(=O)OCc1noc(C)n1`, the cytotoxicity at 70.5 h was -15.9%.

For `OCCCNc1cccc(COC2CCCCC2)c1`, the cytotoxicity at 70.5 h was found to be 21%.

Consider `CC(NCc1ccnc(OC2CCC2)c1)c1cnn(C)c1` (stereo not given), for which the cytotoxicity at 70.5 h is -15.1%.

`CCn1ccnc1CN1CCCC1c1c(C)nn(C)c1OC` (stereo not given): the cytotoxicity at 70.5 h is -4.2%.

For `N#Cc1ccc(CN2CCc3sccc3C2)c(F)c1`, the cytotoxicity at 70.5 h was -1.03%.

Regarding `COc1ccc(Cl)cc1CS(=O)(=O)Cc1nc(C)no1`, the cytotoxicity at 70.5 h turned out to be 15.2%.

Regarding `O=C(CN1CCCS1(=O)=O)Nc1ccc(OC(F)F)cc1`, the cytotoxicity at 70.5 h was -9.68%.

For the compound `COc1ccc(Cl)cc1CS(=O)(=O)Cc1cc(C)on1`, the cytotoxicity at 70.5 h was -5.88%.

As to `Cc1ccc(C(=O)NCCCn2cccn2)c(=O)[nH]1`, the cytotoxicity at 70.5 h was -0.293%.

Take `Cc1ccc(CNC(=O)Nc2nnc(C(C)C)s2)n1C`: the cytotoxicity at 70.5 h is -4.19%.

Take `Cc1ccc(CNC(=O)Nc2nncs2)n1C`: the cytotoxicity at 70.5 h was -7.51%.

For `CC(C)(C)c1ccc(S(=O)(=O)CCNC(=O)c2cnccn2)cc1`, the cytotoxicity at 70.5 h is 10.2%.

In the case of `COCCS(=O)(=O)N(Cc1cscn1)c1ccccc1`, the cytotoxicity at 70.5 h is -5.03%.

Consider `Cc1nn(C)c(Cl)c1C1CCCN1Cc1nnc(C2CC2)n1C` (stereo not given), for which the cytotoxicity at 70.5 h was -0.0718%.

As to `CN(C)S(=O)(=O)N(Cc1cscn1)c1ccccc1`, the cytotoxicity at 70.5 h amounted to 12.4%.

Turning to `Cc1ccc(C(=O)OC(C)Cn2cccn2)c(=O)[nH]1` (stereo not given), the cytotoxicity at 70.5 h is -0.535%.

Regarding `O=C(CN1CCCS1(=O)=O)Nc1cccc(COC2CCCCC2)c1`, the cytotoxicity at 70.5 h was -2.5%.

For `COc1cccc2c1CCC2NC(=O)NCc1csc(N(C)C)n1` (stereo not given), the cytotoxicity at 70.5 h was found to be 9.68%.

In the case of `COc1ccccc1C(C#N)NC(=O)c1cccc2c1oc(=O)n2C` (stereo not given), the cytotoxicity at 70.5 h is -6.2%.

`COC(C)c1noc(CN(C)c2ncc(Br)cn2)n1` (stereo not given): the cytotoxicity at 70.5 h is -3.46%.

As for `COc1c(C2CCCN2Cc2nnc(C3CC3)o2)c(C)nn1C` (stereo not given), the cytotoxicity at 70.5 h is -4.73%.

For `CN(CCc1ccncc1)C(=O)c1sccc1OC(F)F`, the cytotoxicity at 70.5 h was -10.6%.

`COCCNc1ccc(CNCc2cnc3nc(C)cc(C)n23)cc1`: the cytotoxicity at 70.5 h is -9.55%.

With `Cc1cc(C)n2c(CNCCNc3ccccc3)cnc2n1`, the cytotoxicity at 70.5 h was -1.23%.

Turning to `CCn1cnnc1CNS(=O)(=O)N1CCCC1c1ccco1` (stereo not given), the cytotoxicity at 70.5 h is -9.43%.

For the compound `CN(Cc1ccc(F)c(F)c1)Cc1cc2c(cc1Br)OCCO2`, the cytotoxicity at 70.5 h was -8.74%.

On to `Cc1ccc(CN(C(=O)NCC2CCS(=O)(=O)C2)C2CC2)o1` (stereo not given), for which the cytotoxicity at 70.5 h is -7.11%.

For the compound `CC(C)c1nc(CSc2nnc(-c3cccs3)n2CC(N)=O)no1`, the cytotoxicity at 70.5 h is -9.43%.

As to `CC(C)c1cc(NC(=O)Cn2ccc(=O)c3ccccc32)[nH]n1`, the cytotoxicity at 70.5 h came to 5.53%.

As for `Cc1cc(NC(=O)Cn2ccc(=O)c3ccccc32)[nH]n1`, the cytotoxicity at 70.5 h was -3.31%.

Consider `CC(C)CC(=O)N1Cc2ccccc2CC1C(=O)Nc1nncs1` (stereo not given), for which the cytotoxicity at 70.5 h is 1.18%.

Turning to `CCc1nnc(CN2CC(n3cccn3)C2)o1`, the cytotoxicity at 70.5 h is -4.74%.

`CN(Cc1nc2ccccc2n1C)C(=O)CCc1cscn1`: the cytotoxicity at 70.5 h is -1.17%.

Regarding `CCOC(=O)C1(O)CCN(C(=O)Nc2ccc(CC)cc2)CC1`, the cytotoxicity at 70.5 h was -4.17%.

Consider `NS(=O)(=O)c1ccc(N2CCN(CCCc3cn[nH]c3)CC2)cc1`, for which the cytotoxicity at 70.5 h worked out at 15.8%.

`COCc1cccc(C(=O)N2CCCN(C(=O)OCC(C)C)CC2)c1`: the cytotoxicity at 70.5 h is -5.18%.

In the case of `CCc1ccc(C2CCCN2C(=O)CNC(=O)CCC(C)C)o1` (stereo not given), the cytotoxicity at 70.5 h was -1.81%.

For `CCc1ccc(C2CCCN2C(=O)NCC(=O)NCC(C)C)o1` (stereo not given), the cytotoxicity at 70.5 h worked out at 21.4%.

For `Cc1cc(NC(=O)N2CCOCC2)nn1-c1cccc(Cl)c1`, the cytotoxicity at 70.5 h is -2.25%.

In the case of `CCc1ncc2c(n1)CN(Cc1cn3ccsc3n1)CC2`, the cytotoxicity at 70.5 h turned out to be 9.84%.

For the compound `CCCC(=O)N1CCCN(C(=O)Nc2ccc(C)s2)CC1`, the cytotoxicity at 70.5 h was -4.08%.

`O=C(c1ccc(OCC2CC2)cc1)N1CCOCC1c1ncon1` (stereo not given): the cytotoxicity at 70.5 h was 1.72%.

`Cn1c(NCC(=O)N2CCCC2)c(C#N)c(=O)n(C)c1=O`: the cytotoxicity at 70.5 h turned out to be 12.4%.

As for `Clc1ccc(-c2ccc(C3CNCCO3)nc2)cc1` (stereo not given), the cytotoxicity at 70.5 h is -0.52%.
